The values below are quoted from earlier work in patent EP4286484B1, “AQUEOUS PRETREATMENT LIQUID, INK SET, PRINTED ITEM, AND SEPARATION METHOD” (priority 2022, dated 2023).

For the data set the following is noted: anhydrous calcium salt of the named counter anion.

Turning to `O=C([O-])c1ccccc1.O=C([O-])c1ccccc1.[Ca+2]` [benzoate ion], the “solubility of the corresponding anhydrous calcium salt in 100 g of water at 20°C” value is 2 g.
